Values of other authors as cited in patent publication US7709454B2, “Methods and compositions for inhibiting tumorigenesis” (New York University, priority 1997, dated 2010).
Where two headings read alike, the source gives them in different places.

Experiments:
[1] = test system: Nude Harlan Sprague-Dawley Mice/lung (A-549, Calu-1) tumors; conditions: cited from earlier work
A/J mice lung adenomas = conditions: 50 mg/kg/d; cited from earlier work
Rat-1 cells = conditions: cited from earlier work
[2] = test system: Human melanoma cell lines; conditions: cited from earlier work
[3] = test system: SCID mice/melanoma (518A2, 607B); conditions: cited from earlier work
[4] = test system: Nude mice/colon (DLD-1, HCT 116); conditions: 2, 5, 10, 40 mg/kg/d; cited from earlier work
Pancreas (MIA PaCa-2) = conditions: cited from earlier work
NIH3T3 = conditions: 2, 5, 10, 40 mg/kg/d; cited from earlier work
Nude mice/colon (DLD-1) = conditions: 40 mg/kg/d; cited from earlier work
Nude mice/lung (A549) = conditions: 40 mg/kg/d; cited from earlier work
Nude mice/lung (HTB177) = conditions: 40 mg/kg/d; cited from earlier work
Pancreas (AsPC-1) = conditions: 40 mg/kg/d; cited from earlier work
Pancreas (HPAF-11) = conditions: 40 mg/kg/d; cited from earlier work
Pancreas (Hs 700T) = conditions: 40 mg/kg/d; cited from earlier work
Colon (HCT116) = conditions: 40 mg/kg/d; cited from earlier work
Prostate (DU-145) = conditions: 40 mg/kg/d; cited from earlier work
Urinary bladder (EJ) = conditions: 40 mg/kg/d; cited from earlier work
[5] = test system: Wap-H-RAS transgenic Mice/mammary, salivary tumors; conditions: 2, 5, 10, 40 mg/kg/d; cited from earlier work

For CSCC[C@H](NC(=O)c1ccc(NC[C@@H](N)CS)cc1-c1ccccc1)C(=O)O [FTI-276], the “GROWTH INHIBITION” value ([1]; 70 mg/kg/d) is listed as 70%-94%, the “GROWTH INHIBITION” value ([1]; 10, 50, 100 mg/kg/d) is listed as 75% and the “GROWTH INHIBITION” value (A/J mice lung adenomas) is listed as 58%.

In the case of CC(C)=CCC/C(C)=C/CC/C(C)=C/CSc1ccccc1C(=O)O [FTS, S-farnesylthiosalicyclic acid], the IC50 (Rat-1 cells) is listed as 30 to 40 µM, the IC50 [2] is listed as 100 µM and the “GROWTH INHIBITION” value ([3]; 5 mg/kg/d) is listed as 82-90% of controls. The “growth of human melanoma in SCID mice” value ([3]; mouse, in vivo) was “significant reduction in the growth”.

For NC(=O)N1CCC(CC(=O)N2CCC([C@H]3c4ncc(Br)cc4CCc4cc(Cl)cc(Br)c43)CC2)CC1 [SCH66336], the “GROWTH INHIBITION” value [4] is listed as 76%, the “GROWTH INHIBITION” value (Pancreas (MIA PaCa-2); 40 mg/kg/d, MIA PaCa-2) is listed as 78% and the “GROWTH INHIBITION” value (Pancreas (MIA PaCa-2); 2, 5, 10, 40 mg/kg/d) is listed as 75%. The “GROWTH INHIBITION” value (NIH3T3) was 100%, the “GROWTH INHIBITION” value (Nude mice/colon (DLD-1)) was 76% and the “GROWTH INHIBITION” value (Nude mice/lung (A549)) was 70%. The “GROWTH INHIBITION” value (Nude mice/lung (HTB177)) was 83%, the “GROWTH INHIBITION” value (Pancreas (AsPC-1)) was 72% and the “GROWTH INHIBITION” value (Pancreas (HPAF-11)) was 67%. The “GROWTH INHIBITION” value (Pancreas (Hs 700T)) was 67%, the “GROWTH INHIBITION” value (Colon (HCT116)) was 84% and the “GROWTH INHIBITION” value (Prostate (DU-145)) was 86%. For the same molecule, the “GROWTH INHIBITION” value (Urinary bladder (EJ)) was 100% and the “GROWTH INHIBITION” value [5] was 67%-86%.
